Each structure is given as a SMILES string. Converted amounts (≈) assume the structure as drawn.

By MIC is commonly meant the lowest concentration that inhibits growth of the organism. Broadly, the MIC50 is an inhibitory concentration at the 50% level, which refers to growth in some studies and to a panel of isolates in others. A lower MIC50 goes with higher susceptibility. A word on the MIC90: it is the lowest concentration that inhibits either 90% of growth or 90% of the strains tested, depending on the study.

Common to all, as to assay type: functional
Test [1] deals with Nakaseomyces glabratus. The test can be described thus: Ratio of CDR1 gene expression in Candida glabrata isolated from patient 491 receiving antifungal drug to CDR1 gene expression in Candida glabrata isolated from patient 491 by RT-PCR analysis.
The subject of test [2] is Nakaseomyces glabratus. The test can be described thus: Ratio of ERG11 gene expression in Candida glabrata isolated from patient 491 receiving antifungal drug to ERG11 gene expression in Candida glabrata isolated from patient 491 by RT-PCR analysis.
Test [3] has as its system Nakaseomyces glabratus. The test can be described thus: Ratio of URA3 gene expression in Candida glabrata isolated from patient 491 receiving antifungal drug to URA3 gene expression in Candida glabrata isolated from patient 491 by RT-PCR analysis.
The test system of test [4] is Nakaseomyces glabratus. The test can be described thus: Antifungal activity against 35 days cultured Candida glabrata isolated from HSCT recipient with acute or chronic GVHD mouth receiving antifungal therapy for 165 days after 138 days of prophylaxis by broth microdilution method.
The subject of test [5] is Nakaseomyces glabratus. Nature of the test: Antifungal activity against 62 days cultured Candida glabrata isolated from HSCT recipient with acute or chronic GVHD mouth receiving antifungal therapy for 143 days after 116 days of prophylaxis by broth microdilution method.
Test [6] concerns Nakaseomyces glabratus. The test can be described thus: Antifungal activity against 85 days cultured Candida glabrata isolated from HSCT recipient with acute or chronic GVHD mouth receiving antifungal therapy for 143 days after 116 days of prophylaxis by broth microdilution method.
Test [7] relates to Nakaseomyces glabratus. The test can be described thus: Antifungal activity against 56 days cultured Candida glabrata isolated from HSCT recipient with acute or chronic GVHD mouth receiving antifungal therapy for 172 days after 114 days of prophylaxis by broth microdilution method. (In general: Dilution methods test growth across graded concentrations, often in twofold steps.)

The subject of test [8] is Pichia kudriavzevii. Nature of the test: Antifungal activity against 6 days cultured Candida krusei isolated from neutropenic subject with AML or MDS stool receiving antifungal therapy for 19 days after 6 days of prophylaxis by broth microdilution method.
In test [9] the test system is Nakaseomyces glabratus. Nature of the test: Ratio of CDR1 gene expression in Candida glabrata isolated from patient 002 receiving antifungal drug to CDR1 gene expression in Candida glabrata isolated from patient 002 by RT-PCR analysis.
The subject of test [10] is Nakaseomyces glabratus. The test can be described thus: Ratio of CDR2 gene expression in Candida glabrata isolated from patient 002 receiving antifungal drug to CDR2 gene expression in Candida glabrata isolated from patient 002 by RT-PCR analysis.
In test [11] the test system is Nakaseomyces glabratus. The test can be described thus: Ratio of ERG11 gene expression in Candida glabrata isolated from patient 002 receiving antifungal drug to ERG11 gene expression in Candida glabrata isolated from patient 002 by RT-PCR analysis.
For test [12], the system named is Nakaseomyces glabratus. The test can be described thus: Ratio of URA3 gene expression in Candida glabrata isolated from patient 002 receiving antifungal drug to URA3 gene expression in Candida glabrata isolated from patient 002 by RT-PCR analysis.
The subject of test [13] is Nakaseomyces glabratus. Nature of the test: Ratio of CDR1 gene expression in Candida glabrata isolated from patient 497 receiving antifungal drug to CDR1 gene expression in Candida glabrata isolated from patient 497 by RT-PCR analysis.
Test [14] deals with Nakaseomyces glabratus. Nature of the test: Ratio of CDR2 gene expression in Candida glabrata isolated from patient 497 receiving antifungal drug to CDR2 gene expression in Candida glabrata isolated from patient 497 by RT-PCR analysis.
In test [15] the test system is Nakaseomyces glabratus. The test can be described thus: Ratio of ERG11 gene expression in Candida glabrata isolated from patient 497 receiving antifungal drug to ERG11 gene expression in Candida glabrata isolated from patient 497 by RT-PCR analysis.
Test [16] deals with Nakaseomyces glabratus. The test can be described thus: Ratio of URA3 gene expression in Candida glabrata isolated from patient 497 receiving antifungal drug to URA3 gene expression in Candida glabrata isolated from patient 497 by RT-PCR analysis.
The subject of test [17] is Nakaseomyces glabratus. Nature of the test: Ratio of CDR1 gene expression in Candida glabrata isolated from patient 807 receiving antifungal drug to CDR1 gene expression in Candida glabrata isolated from patient 807 by RT-PCR analysis.
The test system of test [18] is Nakaseomyces glabratus. The test can be described thus: Ratio of ERG11 gene expression in Candida glabrata isolated from patient 807 receiving antifungal drug to ERG11 gene expression in Candida glabrata isolated from patient 807 by RT-PCR analysis.
The test system of test [19] is Nakaseomyces glabratus. Nature of the test: Ratio of URA3 gene expression in Candida glabrata isolated from patient 807 receiving antifungal drug to URA3 gene expression in Candida glabrata isolated from patient 807 by RT-PCR analysis.
Test [20] concerns Nakaseomyces glabratus. Nature of the test: Antifungal activity against Candida glabrata isolated from neutropenic subjects with AML or MDS receiving posaconazole assessed as maximum MIC by broth microdilution method.
Test [21] concerns Candida albicans. Nature of the test: Antifungal activity against Candida albicans isolated from neutropenic subjects with AML or MDS prior to initiation of fluconazole therapy by broth microdilution method.
Test [22] has as its system Pichia kudriavzevii. The test can be described thus: Antifungal activity against Candida krusei isolated from neutropenic subjects with AML or MDS receiving fluconazole assessed as maximum MIC by broth microdilution method.
In test [23] the test system is Nakaseomyces glabratus. The test can be described thus: Antifungal activity against Candida glabrata isolated from HSCT recipient 186 with acute or chronic GVHD mouth after 112 days prophylaxis by broth microdilution method.
Test [24] concerns Candida albicans. Nature of the test: Antifungal activity against Candida albicans isolated from HSCT recipient 031 with acute or chronic GVHD mouth after 109 days prophylaxis by broth microdilution method.
Test [25] deals with Candida albicans. Nature of the test: Antifungal activity against Candida albicans isolated from HSCT recipient 462 with acute or chronic GVHD mouth after 112 days prophylaxis by broth microdilution method.
Test [26] concerns Candida albicans. Nature of the test: Antifungal activity against Candida albicans isolated from HSCT recipient 042 with acute or chronic GVHD mouth after 112 days prophylaxis by broth microdilution method.
Test [27] has as its system Candida albicans. Nature of the test: Antifungal activity against Candida albicans isolated from HSCT recipient 928 with acute or chronic GVHD mouth after 112 days prophylaxis by broth microdilution method.
For test [28], the system named is Nakaseomyces glabratus. The test can be described thus: Antifungal activity against 16 days cultured Candida glabrata isolated from invasive fungal infected subject blood after 17 days of prophylaxis by broth microdilution method.
The subject of test [29] is Nakaseomyces glabratus. Nature of the test: Ratio of URA3 gene expression in Candida glabrata isolated from patient 975 receiving antifungal drug to URA3 gene expression in Candida glabrata isolated from patient 975 by RT-PCR analysis.
The subject of test [30] is Nakaseomyces glabratus. The test can be described thus: Antifungal activity against Candida glabrata isolated from HSCT recipient 491 with acute or chronic GVHD mouth after 112 days prophylaxis by broth microdilution method.
For test [31], the system named is Nakaseomyces glabratus. The test can be described thus: Ratio of CDR1 gene expression in Candida glabrata isolated from patient 186 receiving antifungal drug to CDR1 gene expression in Candida glabrata isolated from patient 186 by RT-PCR analysis.
The subject of test [32] is Nakaseomyces glabratus. Nature of the test: Ratio of CDR2 gene expression in Candida glabrata isolated from patient 186 receiving antifungal drug to CDR2 gene expression in Candida glabrata isolated from patient 186 by RT-PCR analysis.
The subject of test [33] is Nakaseomyces glabratus. The test can be described thus: Ratio of ERG11 gene expression in Candida glabrata isolated from patient 186 receiving antifungal drug to ERG11 gene expression in Candida glabrata isolated from patient 186 by RT-PCR analysis.
Test [34] has as its system Nakaseomyces glabratus. Nature of the test: Ratio of URA3 gene expression in Candida glabrata isolated from patient 186 receiving antifungal drug to URA3 gene expression in Candida glabrata isolated from patient 186 by RT-PCR analysis.
Test [35] deals with Nakaseomyces glabratus. The test can be described thus: Ratio of CDR1 gene expression in Candida glabrata isolated from patient 975 receiving antifungal drug to CDR1 gene expression in Candida glabrata isolated from patient 975 by RT-PCR analysis.
Test [36] relates to Nakaseomyces glabratus. The test can be described thus: Ratio of CDR2 gene expression in Candida glabrata isolated from patient 975 receiving antifungal drug to CDR2 gene expression in Candida glabrata isolated from patient 975 by RT-PCR analysis.
Test [37] concerns Nakaseomyces glabratus. Nature of the test: Ratio of ERG11 gene expression in Candida glabrata isolated from patient 975 receiving antifungal drug to ERG11 gene expression in Candida glabrata isolated from patient 975 by RT-PCR analysis.

On to `OC(Cn1cncn1)(Cn1cncn1)c1ccc(F)cc1F` [FLUCONAZOLE], for which the “fold change (FC)” value with Nakaseomyces glabratus [1] was 4.5; in the test with Nakaseomyces glabratus [2], 1.2; in the test with Nakaseomyces glabratus [3], 1; in the test with Nakaseomyces glabratus [9], 1.5; in the test on Nakaseomyces glabratus [10], -1.2; in the test with Nakaseomyces glabratus [11] it was -1.2. The “fold change (FC)” value in the test with Nakaseomyces glabratus [12] is recorded as -1.2; with Nakaseomyces glabratus [13], 1.3; in the test on Nakaseomyces glabratus [14], -1.2; in the test on Nakaseomyces glabratus [15], -1.2; with Nakaseomyces glabratus [16], -1.2; in the test on Nakaseomyces glabratus [17], 4.3. Further, the figures for the “fold change (FC)” value in the test with Nakaseomyces glabratus [18] and with Nakaseomyces glabratus [19] were 1.1 and 1.4, respectively. Moreover, the MIC with Nakaseomyces glabratus [4] came to 64 µg/mL (≈ 209 µM); against Nakaseomyces glabratus [5], 64 µg/mL (≈ 209 µM); against Nakaseomyces glabratus [6], 64 µg/mL (≈ 209 µM); with Nakaseomyces glabratus [7], 4 µg/mL (≈ 13.1 µM); in the test on Pichia kudriavzevii [8] it was 64 µg/mL (≈ 209 µM); in the test with Nakaseomyces glabratus [20] it was 64 µg/mL. The MIC was 64 µg/mL in the test with Pichia kudriavzevii [22]; 8 µg/mL (≈ 26.1 µM) against Nakaseomyces glabratus [23]; 16 µg/mL (≈ 52.2 µM) with Candida albicans [24]; 8 µg/mL (≈ 26.1 µM) against Candida albicans [25]; < 0.125 µg/mL with Candida albicans [26]; < 0.125 µg/mL in the test on Candida albicans [27]. In addition, in the test on Candida albicans [21], the MIC50 came out at 0.125 µg/mL (≈ 0.408 µM). The MIC90 against Candida albicans [21] turned out to be 0.25 µg/mL (≈ 0.816 µM).

For `CC[C@@H]([C@H](C)O)n1ncn(-c2ccc(N3CCN(c4ccc(OC[C@@H]5CO[C@@](Cn6cncn6)(c6ccc(F)cc6F)C5)cc4)CC3)cc2)c1=O` [POSACONAZOLE], the MIC in the test with Nakaseomyces glabratus [28] is > 8 µg/mL; in the test with Nakaseomyces glabratus [4], 4 µg/mL (≈ 5.71 µM); with Nakaseomyces glabratus [5] it was 4 µg/mL (≈ 5.71 µM); in the test with Nakaseomyces glabratus [6] it was 4 µg/mL (≈ 5.71 µM); in the test with Nakaseomyces glabratus [7], 0.25 µg/mL (≈ 0.357 µM); against Pichia kudriavzevii [8], 0.125 µg/mL (≈ 0.178 µM). The MIC with Nakaseomyces glabratus [20] was 8 µg/mL; with Pichia kudriavzevii [22] it was 0.25 µg/mL; in the test on Nakaseomyces glabratus [23] it was 0.25 µg/mL (≈ 0.357 µM); with Candida albicans [24] it was < 0.015 µg/mL; against Candida albicans [25], < 0.015 µg/mL; in the test on Candida albicans [26], < 0.015 µg/mL. Further, the results for the MIC in the test with Candida albicans [27] and against Nakaseomyces glabratus [30] were < 0.015 µg/mL and 0.25 µg/mL (≈ 0.357 µM), respectively. In addition, the “fold change (FC)” value is recorded as 1.2 in the test on Nakaseomyces glabratus [29]; -1.5 in the test with Nakaseomyces glabratus [31]; -1.45 with Nakaseomyces glabratus [32]; -1.4 in the test with Nakaseomyces glabratus [33]; -1.4 with Nakaseomyces glabratus [34]; 2.25 with Nakaseomyces glabratus [35]. Further, the “fold change (FC)” value in the test with Nakaseomyces glabratus [36] is reported as 1.5; in the test with Nakaseomyces glabratus [37], 1.6. The MIC50 against Candida albicans [21] is 0.015 µg/mL (≈ 0.0214 µM). Also, the MIC90 in the test with Candida albicans [21] amounted to 0.015 µg/mL (≈ 0.0214 µM).

As for `CCC(C)n1ncn(-c2ccc(N3CCN(c4ccc(OCC5COC(Cn6cncn6)(c6ccc(Cl)cc6Cl)O5)cc4)CC3)cc2)c1=O` (configuration not stated) [ITRACONAZOLE], the MIC against Nakaseomyces glabratus [28] was > 8 µg/mL; against Nakaseomyces glabratus [4], 8 µg/mL (≈ 11.3 µM); with Nakaseomyces glabratus [5] it was 8 µg/mL (≈ 11.3 µM); in the test on Nakaseomyces glabratus [6] it was 8 µg/mL (≈ 11.3 µM); against Nakaseomyces glabratus [7] it was 0.5 µg/mL (≈ 0.709 µM); with Pichia kudriavzevii [8] it was 0.5 µg/mL (≈ 0.709 µM). The MIC with Nakaseomyces glabratus [20] is 8 µg/mL; with Pichia kudriavzevii [22], 1 µg/mL; in the test on Nakaseomyces glabratus [23] it was 0.5 µg/mL (≈ 0.709 µM); against Candida albicans [24] it was 0.03 µg/mL (≈ 0.0425 µM); in the test on Candida albicans [25] it was 0.06 µg/mL (≈ 0.085 µM); in the test with Candida albicans [26] it was < 0.015 µg/mL. In addition, the MIC with Candida albicans [27] is < 0.015 µg/mL. The compound further had an MIC50 against Candida albicans [21] of 0.015 µg/mL (≈ 0.0213 µM). In the test on Candida albicans [21], the MIC90 came out at 0.015 µg/mL (≈ 0.0213 µM).

Source of the values: ChEMBL document CHEMBL1687752, “Impact of antifungal prophylaxis on colonization and azole susceptibility of Candida species” (2009).
